Experimental data from patent US5811462A, “HIV Protease inhibitors useful for the treatment of AIDS” (Merck & Co., Inc., priority 1997, dated 1998).

These molecules were tested against T1, HIV Protease (Human immunodeficiency virus type 1 group M subtype B, UniProt P04585) (assay: Inhibition of microbial expressed HIV protease (peptide substrate cleavage, HPLC of products)). Conditions: protease expressed in Eschericia coli, pH 5.5, 30° C., 1 hour.
T1 construct: the protease expressed in Eschericia coli; made in house; host or cells: Escherichia coli
Format: biochemical
Protocol: Assay for Inhibition of Microbial Expressed HIV Protease
Inhibition studies of the reaction of the protease expressed in Eschericia coli with a peptide substrate [Val-Ser-Gln-Asn-(betanapthyl)Ala-Pro-Ile-Val, 0.5 mg/mL at the time the reaction is initiated] were in 50 mM Na acetate, pH 5.5, at 30° C. for 1 hour. Various concentrations of inhibitor in 1.0 μl DMSO were added to 25 μl of the peptide solution in water. The reaction is initiated by the addition of 15 μl of 0.33 nM protease (0.11 ng) in a solution of 0.133M Na acetate pH 5.5 and 0.1% bovine serum albumin. The reaction was quenched with 160 μl of 5% phosphoric acid. Products of the reaction were separated by HPLC (VYDAC wide pore 5 cm C-18 reverse phase, acetonitrile gradient, 0.1% phosphoric acid). The extent of inhibition of the reaction was determined from the peak heights of the products.

IC50 [nM]	SMILES
0.025	O=C(N[C@H]1c2ccccc2C[C@H]1O)[C@H](Cc1ccccc1)C[C@H](O)CNC(=O)[C@H]1[C@H](C(=O)N(Cc2ccccc2)Cc2ccccc2)[C@@H]2C=C[C@H]1C2 [C]
0.055	O=C(N[C@H]1c2ccccc2C[C@H]1O)[C@H](Cc1ccccc1)C[C@H](O)CNC(=O)[C@H]1[C@H](C(=O)NCCc2ccccc2)[C@@H]2C=C[C@H]1C2 [A]
82.8	CC(C)(C)NC(=O)[C@H]1[C@H](C(=O)NC[C@@H](O)C[C@@H](Cc2ccccc2)C(=O)N[C@H]2c3ccccc3C[C@H]2O)[C@H]2C=C[C@@H]1C2 [B]
